pIC50: −log10 of the molar value.

The conditions of data set [1]: case report; cited from earlier work.
The test system of data set [2] is permeabilized human peripheral blood mononuclear cells (PBMCs). Briefly: High-resolution respirometry of permeabilized human PBMCs. Conditions: PBMC, read-out: IC50 for inhibition of OXPHOSCI capacity.
Method: Real-time respirometric measurements were performed using high-resolution oxygraphs (Oxygraph-2k, Oroboros Instruments, Innsbruck, Austria). The experimental conditions during the measurements were the following: 37° C., 2 mL active chamber volume and 750 rpm stirrer speed. […] For data recording, DatLab software version 4 and 5 were used (Oroboros Instruments, Innsbruck, Austria). Settings, daily calibration and instrumental background corrections were conducted according to the manufacturer's instructions. […] All measurements were performed at a platelet concentration of 200×10^6 cells per mL or a PBMC concentration of 5×10^6 cells per mL. […] Maximal uncoupled respiratory electron transport system capacity supported by convergent input through complex I and […] ) was evaluated by subsequent titration with the protonophore carbonylcyanide p-(trifluoromethoxy) phenylhydrazone (FCCP). […] Complex IV activity was calculated by subtracting the sodium azide value from the TMPD value. With exception of complex IV activity, all respiratory states were measured at steady-state and corrected for ROX. Complex IV activity was measured after ROX determination and not at steady-state.
In a further data set the test system is intact human platelets. Briefly: Lactate production and pH of intact human platelets. In kind it is cell-based. As to conditions: 8 h; metformin 1 and 10 mM, phenformin 0.5 mM, rotenone 2 μM. The protocol:
Lactate levels are determined every 30 min using the Lactate Pro™ 2 blood lactate test meter (Arkray, Alere A B, Lidingö, Sweden) or similar types of measurements. Incubation is performed at 37° C. pH is measured at start, after 4 and after 8 h (or more frequently) of incubation using a Standard pH Meter, e.g. PHM210 (Radiometer, Copenhagen, Denmark). Drug candidates are added to the assay from start or following 30-60 min at concentrations within the range 10 μM-5 mM. […] In order to evaluate the specificity of the drug candidate, it is also tested in combination with a down-stream inhibitor of respiration such as the complex III inhibitor Antimycin at 1 μg/mL, which should abolish the effect of the drug candidate and restore the production of lactate.
Incubation was performed at 37° C. at a stirrer speed of 750 rpm, and pH was measured at start, after 4 and after 8 h of incubation (n=4) using a PHM210 Standard pH Meter (Radiometer, Copenhagen, Denmark).

The subject of data set [3] is permeabilized human platelets. Kind of data set: cells. The protocol:
Lactate production of intact human platelets was determined in PBS containing 10 mM glucose.
Subsequently the FADH2-linked substrate succinate (10 mM) was given to determine convergent complex I- and II-dependent OXPHOS capacity (OXPHOSCI+II). […] Finally, the artificial complex IV substrate N,N,N′,N′-tetramethyl-p-phenylenediamine dihydrochloride (TMPD, 0.5 mM) was added and the complex IV inhibitor sodium azide (10 mM) was given to measure complex IV activity and chemical background, respectively.

The conditions of data set [4]: patients; cited from earlier work.

By pIC50 is commonly meant the IC50 on a negative log10 scale, so that one unit is a factor of ten. With `CN(C)C(=N)N=C(N)N` [Metformin], in data set [1], the “serum level in involuntary intoxication, prior to hemodialysis” value is “over 2 mM”. Also, the pIC50 in data set [2] is 3.35.

Turning to `[H]/N=C(/N)N/C(=N/[H])NCCc1ccccc1` [Phenformin], in the data set on intact human platelets, the “lactate production compared to control” value is “significantly more lactate”. The pIC50 in data set [3] (Homo sapiens, Platelet, 10 min, read-out: IC50 for inhibition of OXPHOSCI capacity) is 4.24. The “ETSCII capacity and complex IV activity” value in data set [3] (permeabilized platelets, compared to controls) is “not ETSCII or respiration specific to complex IV”. Also, in data set [3] (permeabilized platelets, phenformin vs metformin), the “potency of OXPHOSCI inhibition relative to metformin” value turned out to be 20 fold. Further, in data set [4], the “incidence of lactic acidosis” value was 4 cases per 10000 treatment-years.

These data come from US10307389B2, “Succinate prodrugs for use in the treatment of lactic acidosis or drug-induced side-effects due to Complex I-related impairment of mitochondrial oxidative phosphorylation” (NEUROVIVE PHARMACEUTICAL AB, priority 2014, dated 2019).
